From ChEMBL document CHEMBL2429714, “Synthesis and analgesic activity of monoterpenoid-derived 2-aryl-4,4,7-trimethyl-4a,5,8,8a-tetrahydro-4H-benzo[d][1,3]dioxin-8-ols” (Med Chem Res, 2013)

Assays:
[1] = system: Mus musculus; assay: Analgesic activity in po dosed albino mouse assessed as protection against acetic acid-induced writhing administered 1 hr prior to prior to acetic acid challenge measured at 5 to 8 mins; assay type: functional
[2] = system: Mus musculus; assay: Analgesic activity in albino mouse assessed as inhibition of abdominal convulsion at 10 mg/kg, po administered 1 hr prior to acetic acid challenge measured at 5 to 8 mins by acetic acid-induced writhing test relative to control; assay type: functional; conditions: Abdomen
[3] = system: Mus musculus; assay: Analgesic activity in albino mouse assessed as protection against thermal-induced paw licking or jumping behaviour at 10 mg/kg, po administered 1 hr prior to testing by hot plate test relative to control; assay type: functional
[4] = Toxicity in po dosed albino mouse; assay type: organism-based; conditions: in vivo

| Structure (SMILES) | ED50 [1] | inhibition in vivo at 10 mg/kg [2] | Activity [3] | LD50 [4] |
| --- | --- | --- | --- | --- |
| O=C([O-])Cc1ccccc1Nc1c(Cl)cccc1Cl.[Na+] [DICLOFENAC SODIUM] | 5 mg/kg | 90% | 64% |  |
| CC1=CC[C@@H]2[C@@H](O[C@H](c3cccc(Cl)c3)OC2(C)C)[C@@H]1O |  | 27% | 36% |  |
| CC1=CC[C@@H]2[C@@H](O[C@H](c3ccc(C(F)(F)F)cc3)OC2(C)C)[C@@H]1O |  | 52% | 30% |  |
| CC1=CC[C@@H]2[C@@H](O[C@H](c3ccc(Br)cc3)OC2(C)C)[C@@H]1O |  | 33% | 33% |  |
| CC1=CC[C@@H]2[C@@H](O[C@H](c3ccc(Cl)c(Cl)c3)OC2(C)C)[C@@H]1O |  | 14% | 36% |  |
| CC1=CC[C@@H]2[C@@H](O[C@H](c3cccc(F)c3)OC2(C)C)[C@@H]1O |  | 40% | 0% |  |
| CC1=CC[C@@H]2[C@@H](O[C@H](c3cccc(Cl)c3)CC2(C)O)[C@@H]1O (mixture of isomers) |  | 26% | 14% |  |
| CC1=CC[C@@H]2[C@@H](O[C@H](c3ccc(F)cc3)OC2(C)C)[C@@H]1O |  | 40% | 0% | 1000 mg/kg |
| CC1=CC[C@@H]2[C@@H](O[C@H](c3ccc([N+](=O)[O-])cc3)OC2(C)C)[C@@H]1O |  | 65% | 84% |  |
| CC1=CC[C@@H]2[C@@H](O[C@H](c3ccc(Cl)cc3)OC2(C)C)[C@@H]1O | 4.5 mg/kg | 88% | 8% |  |
